Among the data in US10519152B2, “Compounds and their use in treating cancer” (AstraZeneca AB, priority 2017, dated 2019) are IC50 values, retold here.

Where a name gives a salt, the structure may show the parent alone.

The assay has as its target T1, recombinant human Estrogen Receptor alpha ligand binding domain, residues 307-554 (ER alpha-LBD (GST)) (Homo sapiens, UniProt P03372).
T1 construct: made in house
T1 sequence (P03372 307-554): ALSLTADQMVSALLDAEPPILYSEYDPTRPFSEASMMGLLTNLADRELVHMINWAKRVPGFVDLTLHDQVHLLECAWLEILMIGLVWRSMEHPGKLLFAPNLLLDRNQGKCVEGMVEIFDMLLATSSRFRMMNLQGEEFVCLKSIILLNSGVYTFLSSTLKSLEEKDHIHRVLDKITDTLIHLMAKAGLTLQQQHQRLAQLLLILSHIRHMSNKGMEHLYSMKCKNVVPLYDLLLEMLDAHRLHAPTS
Kind of assay: ERα binding assay (LanthaScreen TR-FRET competition). The following applies: TR-FRET competition with Fluormone ES2 tracer, 4 hours at room temperature; single experiment or average of two or more.
With `Cc1ncsc1-c1ccc(CNC(=O)[C@@H]2C[C@@H](O)CN2C(=O)[C@@H](NC(=O)COCCOCCOCCCNC(=O)c2cc(F)c([C@@H]3c4[nH]c5ccccc5c4C[C@@H](C)N3CC(C)(C)F)c(F)c2)C(C)(C)C)cc1` [Example 84, (2S,4R)-1-((S)-16-(tert-Butyl)-1-(3,5-difluoro-4-((1R,3R)-2-(2-fluoro-2-methylpropyl)-3-methyl-2,3,4,9-tetrahydro-1H-pyrido[3,4-b]indol-1-yl)phenyl)-1,14-dioxo-6,9,12-trioxa-2,15-diazaheptadecan-17-oyl)-4-hydroxy-N-(4-(4-methylthiazol-5-yl)benzyl)pyrrolidine-2-carboxamide], the IC50 came to 1.3 nM.
The figure for `Cc1ncsc1-c1ccc(CNC(=O)[C@@H]2C[C@@H](O)CN2C(=O)[C@@H](NC(=O)COCCOCCNC(=O)/C=C/c2cc(F)c([C@@H]3c4[nH]c5ccccc5c4C[C@@H](C)N3CC(C)(C)F)c(F)c2)C(C)(C)C)cc1` [Example 58, (2S,4R)-1-((S,E)-2-(tert-butyl)-15-(3,5-difluoro-4-((1R,3R)-2-(2-fluoro-2-methylpropyl)-3-methyl-2,3,4,9-tetrahydro-1H-pyrido[3,4-b]indol-1-yl)phenyl)-4,13-dioxo-6,9-dioxa-3,124-diazapentadec-4-enoyl)-4-hydroxy-N-(4-(4-methylthiazol-5-yl)benzyl)pyrrolidine-2-carboxamide, Trifluoroacetic Acid] is 0.9 nM; for `Cc1ncsc1-c1ccc(CNC(=O)[C@@H]2C[C@@H](O)CN2C(=O)[C@@H](NC(=O)Cc2ccc(OCCOCCNC(=O)/C=C/c3cc(F)c([C@@H]4c5[nH]c6ccccc6c5C[C@@H](C)N4CC(C)(C)F)c(F)c3)cc2)C(C)(C)C)cc1` [Example 66, (2S,4R)-1-((S)-2-(2-(4-(2-(2-((E)-3-(3,5-difluoro-4-((1R,3R)-2-(2-fluoro-2-methylpropyl)-3-methyl-2,3,4,9-tetrahydro-1H-pyrido[3,4-b]indol-1-yl)phenyl)acrylamido)ethoxy)ethoxy)phenyl)acetamido)-3,3-dimethylbutanoyl)-4-hydroxy-N-(4-(4-methylthiazol-5-yl)benzyl)pyrrolidine-2-carboxamide, Trifluoroacetic Acid] it is 1.2 nM.
The figure for `Cc1ncsc1-c1ccc(CNC(=O)[C@@H]2C[C@@H](O)CN2C(=O)[C@@H](NC(=O)COCCOCCOCCNC(=O)/C=C/c2cc(F)c([C@@H]3c4[nH]c5ccccc5c4C[C@@H](C)N3CC(C)(C)F)c(F)c2)C(C)(C)C)cc1` [Example 63, (2S,4R)-1-((S,E)-2-(tert-butyl)-18-(3,5-difluoro-4-((1R,3R)-2-(2-fluoro-2-methylpropyl)-3-methyl-2,3,4,9-tetrahydro-1H-pyrido[3,4-b]indol-1-yl)phenyl)-4,16-dioxo-6,9,12-trioxa-3,15-diazaoctadec-17-enoyl)-4-hydroxy-N-(4-(4-methylthiazol-5-yl)benzyl)pyrrolidine-2-carboxamide, Trifluoroacetic Acid] is 1 nM; for `Cc1ncsc1-c1ccc(CNC(=O)[C@@H]2C[C@@H](O)CN2C(=O)[C@@H](NC(=O)COCCOCCOCCCCNC(=O)c2cc(F)c([C@@H]3c4[nH]c5ccccc5c4C[C@@H](C)N3CC(C)(C)F)c(F)c2)C(C)(C)C)cc1` [Example 83, (2S,4R)-1-((S)-17-(tert-Butyl)-1-(3,5-difluoro-4-((1R,3R)-2-(2-fluoro-2-methylpropyl)-3-methyl-2,3,4,9-tetrahydro-1H-pyrido[3,4-b]indol-1-yl)phenyl)-1,15-dioxo-7,10,13-trioxa-2,16-diazaoctadecan-18-oyl)-4-hydroxy-N-(4-(4-methylthiazol-5-yl)benzyl)pyrrolidine-2-carboxamide] it is 1.1 nM.
With `Cc1ncsc1-c1ccc(CNC(=O)[C@@H]2C[C@@H](O)CN2C(=O)[C@@H](NC(=O)COCCOCCOCCNC(=O)c2cc(F)c([C@@H]3c4[nH]c5ccccc5c4C[C@@H](C)N3CC(C)(C)F)c(F)c2)C(C)(C)C)cc1` [Example 91, (2S,4R)-1-((S)-15-(tert-Butyl)-1-(3,5-difluoro-4-((1R,3R)-2-(2-fluoro-2-methylpropyl)-3-methyl-2,3,4,9-tetrahydro-1H-pyrido[3,4-b]indol-1-yl)phenyl)-1,13-dioxo-5,8,11-trioxa-2,14-diazahexadecan-16-oyl)-4-hydroxy-N-(4-(4-methylthiazol-5-yl)benzyl)pyrrolidine-2-carboxamide], the 50% inhibitory concentration (IC50) came out at 1.3 nM.
Consider `CC[C@H](C)[C@H](N)C(=O)O[C@@H]1C[C@@H](C(=O)NCc2ccc(-c3scnc3C)cc2)N(C(=O)[C@@H](NC(=O)COCCOCCOCCOc2cc(F)c([C@@H]3c4[nH]c5ccccc5c4C[C@@H](C)N3CC(C)(C)F)c(F)c2)C(C)(C)C)C1` [Example 99, (3R,5S)-1-((S)-2-(2-(2-(2-(2-(3,5-Difluoro-4-((1R,3R)-2-(2-fluoro-2-methylpropyl)-3-methyl-2,3,4,9-tetrahydro-1H-pyrido[3,4-b]indol-1-yl)phenoxy)ethoxy)ethoxy)ethoxy)acetamido)-3,3-dimethylbutanoyl)-5-((4-(4-methylthiazol-5-yl)benzyl)carbamoyl)pyrrolidin-3-yl L-isoleucinate Formate], for which the half-maximal inhibitory concentration (IC50) is 1.2 nM.
The figure for `Cc1ncsc1-c1ccc(CNC(=O)[C@@H]2C[C@@H](O)CN2C(=O)[C@@H](NC(=O)COCCOCCOCCOc2cc(F)c([C@@H]3c4[nH]c5ccccc5c4C[C@@H](C)N3CC(F)(F)CO)c(F)c2)C(C)(C)C)cc1` [Example 71, (2S,4R)-1-((S)-2-(tert-Butyl)-14-(4-((1R,3R)-2-(2,2-difluoro-3-hydroxypropyl)-3-methyl-2,3,4,9-tetrahydro-1H-pyrido[3,4-b]indol-1-yl)-3,5-difluorophenoxy)-4-oxo-6,9,12-trioxa-3-azatetradecanoyl)-4-hydroxy-N-(4-(4-methylthiazol-5-yl)benzyl)pyrrolidine-2-carboxamide] is 1.3 nM; for `Cc1ncsc1-c1ccc([C@H](C)NC(=O)[C@@H]2C[C@@H](O)CN2C(=O)[C@@H](NC(=O)COCCOCCOCCOc2cc(F)c([C@@H]3c4[nH]c5ccccc5c4C[C@@H](C)N3CC(C)(C)F)c(F)c2)C(C)(C)C)cc1` [Example 3, (2S,4R)-1-((S)-2-(tert-Butyl)-14-(3,5-difluoro-4-((1R,3R)-2-(2-fluoro-2-methylpropyl)-3-methyl-2,3,4,9-tetrahydro-1H-pyrido[3,4-b]indol-1-yl)phenoxy)-4-oxo-6,9,12-trioxa-3-azatetradecanoyl)-4-hydroxy-N—((S)-1-(4-(4-methylthiazol-5-yl)phenyl)ethyl)pyrrolidine-2-carboxamide] it is 0.8 nM; for `Cc1ncsc1-c1ccc(CNC(=O)[C@@H]2C[C@@H](O)CN2C(=O)[C@@H](NC(=O)COCCCCCOc2cc(F)c([C@@H]3c4[nH]c5ccccc5c4C[C@@H](C)N3CC3(F)CC3)c(F)c2)C(C)(C)C)cc1` [Example 79, (2S,4R)-1-((S)-2-(2-((5-(3,5-difluoro-4-((1R,3R)-2-((1-fluorocyclopropyl)methyl)-3-methyl-2,3,4,9-tetrahydro-1H-pyrido[3,4-b]indol-1-yl)phenoxy)pentyl)oxy)acetamido)-3,3-dimethylbutanoyl)-4-hydroxy-N-(4-(4-methylthiazol-5-yl)benzyl)pyrrolidine-2-carboxamide] it is 0.9 nM.
For `Cc1ncsc1-c1ccc(CNC(=O)[C@@H]2C[C@@H](O)CN2C(=O)[C@@H](NC(=O)COCCNC(=O)/C=C/c2cc(F)c([C@@H]3c4[nH]c5ccccc5c4C[C@@H](C)N3CC(C)(C)F)c(F)c2)C(C)(C)C)cc1` [Example 62, (2S,4R)-1-((S)-2-(2-(2-((E)-3-(3,5-difluoro-4-((1R,3R)-2-(2-fluoro-2-methylpropyl)-3-methyl-2,3,4,9-tetrahydro-1H-pyrido[3,4-b]indol-1-yl)phenyl)acrylamido)ethoxy)acetamido)-3,3-dimethylbutanoyl)-4-hydroxy-N-(4-(4-methylthiazol-5-yl)benzyl)pyrrolidine-2-carboxamide, Trifluoroacetic Acid], the IC50 is 0.5 nM.
As for `Cc1ncsc1-c1ccc(CNC(=O)[C@@H]2C[C@@H](O)CN2C(=O)[C@@H](NC(=O)COCCCCCCCOc2cc(F)c([C@@H]3c4[nH]c5ccccc5c4C[C@@H](C)N3CC(F)(F)CO)c(F)c2)C(C)(C)C)cc1` [Example 78, (2S,4R)-1-((S)-2-(2-((7-(4-((1R,3R)-2-(2,2-Difluoro-3-hydroxypropyl)-3-methyl-2,3,4,9-tetrahydro-1H-pyrido[3,4-b]indol-1-yl)-3,5-difluorophenoxy)heptyl)oxy)acetamido)-3,3-dimethylbutanoyl)-4-hydroxy-N-(4-(4-methylthiazol-5-yl)benzyl)pyrrolidine-2-carboxamide], the IC50 came to 0.5 nM.
On to `Cc1ncsc1-c1ccc(CNC(=O)[C@@H]2C[C@@H](O)CN2C(=O)[C@@H](NC(=O)COCCOCCOCCOCCOCC(=O)Nc2ccc([C@@H]3c4[nH]c5ccccc5c4C[C@@H](C)N3CC(C)(C)F)cc2)C(C)(C)C)cc1` [Example 56, N^1-(4-((1R,3R)-2-(2-fluoro-2-methylpropyl)-3-methyl-2,3,4,9-tetrahydro-1H-pyrido[3,4-b]indol-1-yl)phenyl)-N^17—((S)-1-((2S,4R)-4-hydroxy-2-((4-(4-methylthiazol-5-yl)benzyl)carbamoyl)pyrrolidin-1-yl)-3,3-dimethyl-1-oxobutan-2-yl)-3,6,9,12,15-pentaoxaheptadecanediamide, Trifluoroacetic Acid], for which the IC50 was 20 nM.

Broadly, the IC50 is the concentration at which inhibition is half-maximal.
